Laboratory results reported in patent US20240180893A1, “METHODS OF TREATMENT OF BREAST CANCER” (AstraZeneca AB, priority 2022, published 2024).

What was measured:
[1] = test system: HR+, HER2− metastatic or loco-regionally recurrent breast cancer; test: SERENA-2 phase 2 study: progression free survival (PFS), RECIST 1.1, assessed by Investigator; assay type: in vivo, human (post-menopausal women)
Source text: In embodiments of the present speciation the method of treatments, ngSERD for use in treatment or for use in the manufacture of a medicament, kit or pharmaceutical composition for use delivers an improvement in the time to disease progression or progression free survival (PFS) relative to that obtained from use of fulvestrant (the first generation SERD). In such embodiment the PFS improvement is relative to that observed with standard of care, i.e. fulvestrant administered at the approved dose of 500 mg once monthly by injection. Clinical activity as assessed by PFS can be determined by the standard assessment of tumour response as per RECIST 1.1 (Eisenhauser et al., Eur J Cancer 2009 January; 45(2):228-47). The RECIST criteria can be evaluated by the treating physician/investigator or by Blinded Independent Central Review (BICR).
In the SERENA-2 clinical trial, further details of which are provided below, the efficacy of camizestrant administered once daily in tablet form at doses of 75 mg and 150 mg as a treatment for patients with HR+, HER2− metastatic or loco-regionally recurrent breast cancer that the breast cancer has recurred or progressed following at least one prior line of endocrine therapy was assessed. The control arm patient in this study were treated with standard of care fulvestrant, the first generation SERD, administered as once monthly 500 mg injection. The study was powered to differentiate between the camizestrant and standard of care, fulvestrant (F), treatment arms, but was not powered to differentiate between the 75 mg and 150 mg camizestrant dose cohorts.
A randomised, open-label, parallel-group, multicentre phase 2 study comparing the efficacy and safety of oral AZD9833 versus fulvestrant in women with advanced er-positive her2-negative breast cancer was carried out according to the following protocol and schedule of activities. The study evaluated the efficacy and safety of AZD9833 (75, 150 and 300 mg, oral [PO]) administered once daily as a monotherapy in comparison with fulvestrant administered according to its label (i. e., slow IM injection into the buttocks [1 to 2 minutes per injection] as two 5-mL injections, 1 in each buttock, on Day 1, Day 15, Day 29 and 4-weekly thereafter).
This is a randomised, open-label, parallel-group, multicentre Phase 2 study to compare the efficacy and safety of daily PO AZD9833 versus IM fulvestrant in women with advanced ER positive HER2 negative breast cancer. Post-menopausal women with histologically or cytologically confirmed metastatic or loco-regionally recurrent disease before randomisation and fulfilling all of the inclusion criteria and none of the exclusion criteria will be included. Randomisation will be stratified according to the prior use of CDK4/6 inhibitors and the presence of liver and/or lung metastases.
After the screening visit and confirmation of eligibility, patients will be randomly assigned in a 1:1:1:1 ratio to receive 1 of the following 4 treatments, consisting in 4-week treatment cycles until disease progression (assessed by the Investigator as defined by Response Evaluation Criteria in Solid Tumours [RECIST] version 1.1): • AZD9833 (75 mg, PO, once daily) • AZD9833 (150 mg, PO, once daily) • AZD9833 (300 mg, PO, once daily) • Fulvestrant (500 mg IM, Day 1, Day 15, Day 29, and 4-weekly thereafter)
Efficacy assessments. Assessment of tumour response. The assessment of tumour response per RECIST version 1.1 will be used to determine the clinical activity (assessed by PFS) and anti-tumour activity (assessed by ORR, clinical benefit rate [CBR]) of AZD9833 and fulvestrant.
Investigator's assessment of tumour response per RECIST version 1.1. Tumour response will be assessed by the Investigators per RECIST version 1.1 (Eisenhauer et al. 2009). From the Investigator's review of the imaging scans, the evaluation of TLs, NTLs and new lesions will be used to determine the overall visit response for each patient. […]

[2] = test system: HR+, HER2− metastatic or loco-regionally recurrent breast cancer; test: SERENA-2 phase 2 study: objective response rate (ORR), patients with measurable disease; assay type: in vivo, human (post-menopausal women); conditions: for Number of patients with response: includes unconfirmed responses; for Adjusted response rate (%): logistic regression, factors prior CDK4/6 inhibitor and lung and/or liver metastasis; for ORR: comparison against fulvestrant, odds ratio: odds ratio > 1 favors AZD9833; for (%) of patients with response: patients with measurable disease
Source text: In embodiments the specification provides a method of treatment of hormone receptor positive (HR+), human epidermal growth factor receptor 2 negative (HER2−), metastatic or loco-regionally recurrent breast cancer, comprising administering camizestrant to a patient suffering from such cancer, characterised in that the cancer has recurred or progressed following at least one prior line of endocrine therapy, wherein the treatment delivers an improvement in objective response rate (ORR) relative to that obtainable with fulvestrant treatment. The ORR is defined as the percentage of patients with at least 1 Investigator-assessed visit response of complete response (CR) or partial response (PR) prior to any evidence of progression. Complete or partial responses are assessed according to the RECIST 1.1 criteria as detailed below. In embodiments the ORR derived from the method of treatment is at least 15.7%, for example 20.3%.
A complete response denotes the disappearance of all target lesions (TLs) since baseline. Any pathological lymph nodes selected as TLs must have a reduction in short axis to <10 mm. A partial response denotes an at least a 30% decrease in the sum of the diameters of TL, taking as reference the baseline sum of diameters. […] Further information on the evaluation of target and non-target lesions is provided below.
The objective response rate (ORR) will be compared between AZD9833 (each dose level) and fulvestrant using a logistic regression model adjusting for prior use of CDK4/6 inhibitors and presence of lung and/or liver metastases.
Secondary endpoints: objective response rate. The ORR is defined as the percentage of patients with at least 1 Investigator-assessed visit response of CR or PR prior to any evidence of progression. The ORR will be based on a subset of the FAS with measurable disease at baseline.
The ORR will be compared between AZD9833 (each dose level) and fulvestrant using a logistic regression model adjusting for prior use of CDK4/6 inhibitors and presence of lung and/or liver metastases. The results of the analysis will be presented in terms of an odds ratio for each treatment comparison together with its associated profile likelihood 90% CI and 2 sided p values (based on twice the change in log-likelihood resulting from the addition of a treatment factor to the model).

[3] = camizestrant 75 mg once daily, all patients, by Investigator
[4] = camizestrant 75 mg, subgroup with metastases to the liver and/or lungs
[5] = camizestrant 75 mg, subgroup with prior CDK4/6 inhibitor therapy
[6] = camizestrant 150 mg once daily, all patients, by Investigator
[7] = camizestrant 150 mg, subgroup with metastases to the liver and/or lungs
[8] = camizestrant 150 mg, subgroup with prior CDK4/6 inhibitor therapy
[9] = fulvestrant 500 mg once monthly injection, all patients, by Investigator
[10] = fulvestrant 500 mg, ESR1m subgroup
[11] = fulvestrant 500 mg, subgroup with metastases to the liver and/or lungs
[12] = fulvestrant 500 mg, subgroup with prior CDK4/6 inhibitor therapy

Structure (SMILES): C[C@@H]1Cc2c(ccc3[nH]ncc23)[C@@H](c2ccc(NC3CN(CCCF)C3)cn2)N1CC(F)(F)F [camizestrant, N-(1-(3-fluoropropyl)azetidin-3-yl)-6-((6S,8R)-8-methyl-7-(2,2,2-trifluoroethyl)-6,7,8,9-tetrahydro-3H-pyrazolo[4,3-f]isoquinolin-6-yl)pyridin-3-amine]
- PFS events [no.] ([1]; AZD9833 75 mg (n = 22), subgroup with mutation to the estrogen receptor (ESR1m)): 15
- Hazard ratio vs fulvestrant ([1]; AZD9833 75 mg, ESR1m subgroup): 0.33
- Median PFS ([1]; AZD9833 75 mg, ESR1m subgroup): 6.3 months
- PFS events (%) ([1]; AZD9833 75 mg, ESR1m subgroup): (68.2) %
- PFS events [no.] ([1]; AZD9833 150 mg (n = 26), subgroup with mutation to the estrogen receptor (ESR1m)): 22
- Hazard ratio vs fulvestrant ([1]; AZD9833 150 mg, ESR1m subgroup): 0.55
- Median PFS ([1]; AZD9833 150 mg, ESR1m subgroup): 9.2 months
- PFS events (%) ([1]; AZD9833 150 mg, ESR1m subgroup): (84.6) %
- Improvement of PFS over fulvestrant ([1]; both camizestrant arms (75 mg and 150 mg), all comer population, by either Investigator or BICR): at least 3.5 months
- PFS events [n] ([1]; camizestrant 75 mg (n = 38), subgroup with prior CDK4/6 inhibitor therapy): 29
- PFS events [no.] ([1]; camizestrant 75 mg (n = 43), subgroup with metastases to the liver and/or lungs): 31
- Hazard ratio for disease progression relative to fulvestrant [1, 3]: 0.58
- Proportion of patients without progression at 12 m [1, 3]: 34.3%
- Median PFS ([1]; camizestrant 75 mg tablet once daily, all patients, by Investigator): 7.2 months
- Hazard ratio vs fulvestrant [1, 4]: 0.43
- Median PFS [1, 4]: 7.2 months
- PFS events (%) [1, 4]: (72.1) %
- Hazard ratio vs fulvestrant [1, 5]: 0.49
- Median PFS [1, 5]: 5.5 months
- PFS events (%) [1, 5]: (76.3) %
- PFS events [n] ([1]; camizestrant 150 mg (n = 37), subgroup with prior CDK4/6 inhibitor therapy): 29
- PFS events [no.] ([1]; camizestrant 150 mg (n = 43), subgroup with metastases to the liver and/or lungs): 32
- Hazard ratio for disease progression relative to fulvestrant [1, 6]: 0.67
- Proportion of patients without progression at 12 m [1, 6]: 44.5%
- Median PFS ([1]; camizestrant 150 mg tablet once daily, all patients, by Investigator): 7.7 months
- Hazard ratio vs fulvestrant [1, 7]: 0.55
- Median PFS [1, 7]: 5.6 months
- PFS events (%) [1, 7]: (74.4) %
- Hazard ratio vs fulvestrant [1, 8]: 0.68
- Median PFS [1, 8]: 3.8 months
- PFS events (%) [1, 8]: (78.4) %
- Number of patients with response ([2]; AZD9833 75 mg, N=70 with measurable disease): 11
- Adjusted response rate (%) ([2]; AZD9833 75 mg): 15.7%
- ORR: comparison against fulvestrant, odds ratio ([2]; AZD9833 75 mg): 1.43
- (%) of patients with response ([2]; AZD9833 75 mg): (15.7) %
- Number of patients with response ([2]; AZD9833 150 mg, N=65 with measurable disease): 13
- Adjusted response rate (%) ([2]; AZD9833 150 mg): 20.3%
- ORR: comparison against fulvestrant, odds ratio ([2]; AZD9833 150 mg): 1.96
- (%) of patients with response ([2]; AZD9833 150 mg): (20.0) %

Structure (SMILES): C[C@]12CC[C@@H]3c4ccc(O)cc4C[C@@H](CCCCCCCCC[S+]([O-])CCCC(F)(F)C(F)(F)F)[C@H]3[C@@H]1CC[C@@H]2O (some centres unmarked) [fulvestrant, reference compound]
- PFS events [no.] ([1]; fulvestrant 500 mg (n = 35), subgroup with mutation to the estrogen receptor (ESR1m)): 31
- PFS events [n] ([1]; fulvestrant 500 mg (n = 37), subgroup with prior CDK4/6 inhibitor therapy): 33
- PFS events [no.] ([1]; fulvestrant 500 mg (n = 43), subgroup with metastases to the liver and/or lungs): 39
- Median PFS [1, 9]: 3.7 months
- Proportion of patients without progression at 12 m [1, 9]: 23.8%
- Median PFS [1, 10]: 2.2 months
- PFS events (%) [1, 10]: (88.6) %
- Median PFS [1, 11]: 2.0 months
- PFS events (%) [1, 11]: (90.7) %
- Median PFS [1, 12]: 2.1 months
- PFS events (%) [1, 12]: (89.2) %
- Number of patients with response ([2]; fulvestrant, N=68 with measurable disease): 8
- Adjusted response rate (%) ([2]; fulvestrant): 11.5%
- (%) of patients with response ([2]; fulvestrant): (11.8) %
